Assays:
[1] = test system: human fibro-sarcoma cells; assay: Viability of human fibro-sarcoma cells (tetrazolium dye); type: cell-based; settings: 3 days incubation, various concentrations
Description: The following experiment was carried out to determine whether peptides antagonistic to VEGF have direct influence on the growth of human fibro-sarcoma cells. After being cultured for one day in a 96-well plate (Nunc), the cancer cells were added with DMEM containing various concentrations of the screened peptides and incubated. To the cells remaining alive after 3 days of incubation, 20 μl of tetrazolium dye (Cell Titer 96 Non-Radioactive Proliferation assay kit, Promega) was added, followed by incubation at 37° C. for 4 hours. The formazan produced by the viable cells was dissolved in 0.2 ml of dimethyl sulfoxide (DMSO) quantified by the absorbance at 570 nm. The absorbance attributed to formazan is proportional to living cells.

[2] = test system: VEGF-induced DNA synthesis of HUVEC; assay: VEGF-induced DNA synthesis of HUVEC ([methyl-3H] thymidine); type: cell-based, human; settings: FIG. 10a
Description: (§1) In a gelatin-coated 48-well plate (Nunc) HUVEC were cultured at a density of 10^4 cells/well at 37° C. for one day, followed by washing the cells three times with serum-free medium 199. After being added with culture media containing VEGF (10 ng/ml, R&D systems) and various concentrations of the screened peptides, the cells were cultured at 37° C. After 24 hours of culturing, the cells were added with [methyl-^3H] thymidine (0.5 μCi/well) and cultured for an additional one day. Before quantification of the radioactivity used for the DNA synthesis with the aid of a liquid scintillation counter, the cells were washed with PBS containing 0.1% albumin, treated with 0.4 N NaOH at room temperature for 20 min for cell lysis, and neutralized with 2 N HCl. In order to determine the toxicity of the peptides, HUVEC were examined as in above using excess peptide (100 μM) in the absence of VEGF.

HUVEC = assay: Toxicity of peptides to HUVEC in the absence of VEGF (thymidine incorporation); type: cell-based, human; settings: 100 μM peptide
Description: as §1
With reference to FIG. 10b, the radioactivity of the thymidine inserted into the genome of HUVEC is measured in the absence of no peptides and in the presence of 100 μM of each of the three peptides.

[3] = test system: HM7 (human colon carcinoma cell line); assay: Growth of HM7 cancer cells in vitro (tetrazolium dye); type: cell-based; settings: 5×10^3 cells/well
Excerpt: In order to conduct an experiment concerning the metastasis of cancer cells to the liver, cancerous cells were transplanted into the spleen. In this regard, after being anesthetized with diethyl ether, 4-week-old male mice (athymic nude mice, BALB/c/nu/nu, Charles River, Japan) underwent flank incision. […] Four weeks after the injection, the liver was excised from each mouse and measured for weight and the size and number of metastatic nodules formed. Each test group was composed of 6-7 mice. In a student's t-test, a p value less than 0.05 was regarded as being statistically significant. In the test using tetrazolium dye (cell titer 96 Non-radioactive Proliferation Assay Kit, Promega), each peptide was evaluated to have no influence on the growth of the cancer cells (5×10^3 cells/well), so that the possibility that the toxicity of the peptide themselves might inhibit the growth and metastasis of cancer cells could be excluded.

[4] = test system: egg CAM (chorioallantoic membranes); assay: Egg CAM assay, angiogenesis induced by VEGF; type: in vivo; settings: VEGF 10 ng/egg alone or with 1 μg sample; for Angiogenic activity(%): (standard deviation)
Description: Fertilized eggs (Pulmuwon, Korea) were incubated at 37° C. under a humidity of 90%. After three days of culturing, the eggs were deprived of about 2 ml of albumin. After four days, eggs were partially deprived of the sheath to make a window with a size of 2×2 cm.
After VEGF (10 ng/egg) was mixed with various amounts of peptides or other samples, 3 μl of each mixture was dropped onto ¼ fraction pieces of thermanox coverslips (Nunc) and dried. The pieces were placed on CAM of 9-day embryonic eggs.
Two days later, the samples were independently observed under anatomical microscopes by two different persons to determine whether new blood vessels are induced by the dropped samples or not. In this regard, the experiment was repeated at least three times using 10 or more eggs per sample and the results are given in Table 5, below.

VEGF = biological target: T1, VEGF (Homo sapiens, UniProt P15692); assay: Inhibition of 125I-labeled VEGF binding to its receptors on HUVEC; settings: for IC50: HUVEC, peptides at 1, 4, 10 and 20 μM/sequence (FIG. 5)
T1 sequence (P15692 27-191 isoform P15692-4): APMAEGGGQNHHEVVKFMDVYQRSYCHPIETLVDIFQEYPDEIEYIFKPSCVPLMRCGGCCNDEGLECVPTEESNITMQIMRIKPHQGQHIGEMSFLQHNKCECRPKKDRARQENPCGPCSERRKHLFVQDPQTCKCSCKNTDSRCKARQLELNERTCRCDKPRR
Description: Then, the cells were transferred to a medium (Medium 199/25 mM HEPES, pH 7.4/0.1% bovine serum albumin) containing 0.2 ng of ^125I-labeled VEGF and various concentrations of peptides or combinatorial peptide libraries and reacted at 4° C. for 3 hours. The cells were washed twice with the same medium and once with PBS containing 0.1% albumin to remove the labeled VEGF which still remained uncombined. Thereafter, to quantify the labeled VEGF which bound to receptors present on the surface of the vascular endothelial cells, the cells were treated with 0.5 ml of a lysis solution (20 mM Tris-HCl, pH 7.4/1% TritonX-100) for 20 min, followed by measuring the resulting lysate for radioactivity with the aid of a γ-counter.
The sequence of each peptide was indirectly decided through the analysis of amino acid compositions and its concentration was determined, after which 12 peptides were assayed for antagonism toward VEGF binding at various concentrations (1, 4, 10, and 20 μM/sequence).

Compound | direct influence on growth / viability of human fibro-sarcoma cells ([1]; listed as SEQ ID NO: 3) | direct influence on growth / viability of human fibro-sarcoma cells ([1]; listed as Sequence 3) | inhibition of VEGF-induced growth of vascular endothelial cells [2] | direct influence on growth of HUVEC / cytotoxicity to endothelial cells (HUVEC) | influence on growth of the cancer cells / cytotoxicity to human colon carcinoma cells [3] | Angiogenic activity eggs/total eggs [4] | Angiogenic activity(%) [4] | IC50 (VEGF) | direct influence on growth / viability of human fibro-sarcoma cells ([1]; listed as SEQ ID NO: 1) | direct influence on growth / viability of human fibro-sarcoma cells ([1]; listed as Sequence 1) | inhibition of binding of labeled VEGF165 to its receptors (VEGF; recombinant labeled VEGF165, FIG. 9) | direct influence on growth / viability of human fibro-sarcoma cells ([1]; listed as SEQ ID NO: 2) | direct influence on growth / viability of human fibro-sarcoma cells ([1]; listed as Sequence 2)
N=C(N)NCCC[C@H](NC(=O)[C@H](CCCNC(=N)N)NC(=O)[C@H](CCCNC(=N)N)NC(=O)[C@H](CCCNC(=N)N)NC(=O)[C@H](CCCNC(=N)N)NC(=O)[C@@H](N)CCCNC(=N)N)C(N)=O [compound 11, NH2-Arg-Arg-Arg-Arg-Arg-Arg-CONH2] | no direct influence on human fibro sarcoma cells | damage neither | inhibit the VEGF-induced growth of vascular endothelial cells in a dose-dependent pattern | damage neither | damage neither | 4/26 | 15.6(5.1) % | 3.8 µM | – | – | – | – | –
H-RRKRRR-NH2 [compound 8, NH2-Arg-Arg-Lys-Arg-Arg-Arg-CONH2] | – | – | inhibit the VEGF-induced growth of vascular endothelial cells in a dose-dependent pattern | damage neither | damage neither | 4/26 | 15.6(5.1) % | 2 µM | no direct influence on human fibro sarcoma cells | damage neither | inhibited | – | –
H-RKKRKR-NH2 [compound 1, NH2-Arg-Lys-Lys-Arg-Lys-Arg-CONH2] | – | – | inhibit the VEGF-induced growth of vascular endothelial cells in a dose-dependent pattern | damage neither | damage neither | 4/26 | 15.6(4.5) % | 3.4 µM | – | – | – | no direct influence on human fibro sarcoma cells | damage neither

Reference: patent US7291601B1, “Arginine-rich anti-vascular endothelial growth factor peptides that inhibit growth and metastasis of human tumor cells by blocking angiogenesis” (Korea Greencross Corp., priority 1999, dated 2007)
